What was measured:
[1] = tested on: relapsed or refractory diffuse large B-cell lymphoma; assay: Clinical trial of lenalidomide vs control in relapsed or refractory DLBCL patients, subtype determined by NanoString; type: in vivo, human; details: for Median overall survival / Median progression free survival: relapsed or refractory DLBCL patients
From the text: DLBCL lymph-node biopsies were formalin fixed and paraffin embedded (FFPE) similarly to that described in Scott et al., Blood 2014 123(8) 1214-1217, the disclosure of which is incorporated by reference herein. Nucleic acids obtained from the tissues were extracted using the QIAGEN AllPrep DNA/RNA FFPE Kit, with deparaffinization achieved using the QIAGEN Deparaffinization Solution, according to the manufacturer's instructions. The RNA was quantitated using spectrophotometry (NanoDrop, Thermo Science, DE). Gene expression on approximately 200 nanograms of RNA was used to determine gene expression levels by means of NanoString technology (NanoString Technologies, WA). The total RNA was hybridized to the custom codesets at 65° C. overnight. The reaction was processed on the nCounter™ Prep Station and gene expression data was then acquired on the nCounter™ Digital Analyzer.
(§1) This clinical benefit is observed when subtype is determined by the Affymetrix test (FIG. 1) or by the NanoString test (FIG. 2).

[2] = tested on: relapsed or refractory diffuse large B-cell lymphoma; assay: Clinical trial of lenalidomide vs control in relapsed or refractory DLBCL patients, subtype determined by Affymetrix; type: in vivo, human; details: for Median overall survival / Median progression free survival: relapsed or refractory DLBCL patients
From the text: DLBCL lymph-node biopsies were either snap frozen or formalin fixed and paraffin embedded similarly to that described by Scott et al., Blood 2014 123(8) 1214-1217, the disclosure of which is incorporated herein in its entirety. Messenger RNA was purified and reverse transcribed into cDNA.
DNA microarray analysis of gene expression was done essentially as described below. The cDNA clones on the Lymphochip microarray are available from Research Genetics. Fluorescent images of hybridized microarrays were obtained using a GenePix 4000 microarray scanner (Axon Instruments). Images were analysed with ScanAlyze (M. Eisen; http://www.microarrays.org/software), and fluorescence ratios (along with numerous quality control parameters; see ScanAlyze manual) were stored in a custom database. Single spots or areas of the array with obvious blemishes were flagged and excluded from subsequent analyses. Fluorescence ratios were calibrated independently for each array by applying a single scaling factor to all fluorescent ratios from each array; this scaling factor was computed so that the median fluorescence ratio of well-measured spots on each array was 1.0.
All cDNA microarray analyses were performed using poly-(A)^+ mRNA (Fast Track, Invitrogen). In each experiment, fluorescent cDNA probes were prepared from an experimental mRNA sample (Cy5-labelled) and a control mRNA sample (Cy3-labelled) isolated from a pool of nine lymphoma cell lines (Raji, Jurkat, L428, OCI-Ly3, OCI-Ly8, OCI-Lyl, SUDHL5, SUDHL6 and WSU1). The use of a common control cDNA probe allows the relative expression of each gene to be compared across all samples.
All non-flagged array elements for which the fluorescent intensity in each channel was greater than 1.4 times the local background were considered well measured. The ratio values were log-transformed (base 2) and stored in a table (rows, individual cDNA clones; columns, single mRNA samples). Data for the genes were centered by subtracting (in log space) the median observed value, to remove any effect of the amount of RNA in the reference pool. This dataset contains 4,026 array elements. Hierarchical clustering was applied to both axes using the weighted pair-group method with centroid average as implemented in the program Cluster (M. Eisen; http://www.microarrays.org/software). The distance matrixes used were Pearson correlation for clustering the arrays and the inner product of vectors normalized to magnitude 1 for the genes. The results were analysed with Tree View (M. Eisen; http://www.microarrays.org/software).
as §1

[3] = ABC plus unclassified subtype (by Nanostring)
[4] = ABC plus unclassified subtype (by Affymetrix)

Nc1cccc2c1CN(C1CCC(=O)NC1=O)C2=O (centres unmarked) [lenalidomide, 3-(4-amino-1-oxoisoindolin-2-yl)piperidine-2,6-dione]
Clinical benefit compared to control as measured by progression free survival ([1]; ABC DLBCL subtype patients and unclassifiable patients, subtype by NanoString test (FIG. 2)): benefit
Median overall survival [1, 3]: 36.9/108.4 weeks
Median progression free survival [1, 3]: 6.6/82 weeks
Median overall survival ([1]; ABC subtype (by Nanostring)): 37/43.7 weeks
Median progression free survival ([1]; ABC subtype (by Nanostring)): 6/27 weeks
Median overall survival ([1]; GBC subtype (by Nanostring)): 34.9/18 weeks
Median progression free survival ([1]; GBC subtype (by Nanostring)): 9/8.7 weeks
Clinical benefit compared to control as measured by progression free survival ([2]; ABC DLBCL subtype patients and unclassifiable patients, subtype by Affymetrix test (FIG. 1)): benefit
Median overall survival [2, 4]: 16.3/33^ weeks
Median progression free survival [2, 4]: 6.3/9.1 weeks
Median overall survival ([2]; ABC subtype (by Affymetrix)): 18.6/108.4 weeks
Median progression free survival ([2]; ABC subtype (by Affymetrix)): 6.2/82 weeks
Median overall survival ([2]; GBC subtype (by Affymetrix)): 20/30 weeks
Median progression free survival ([2]; GBC subtype (by Affymetrix)): 7.1/13.2 weeks

Source: US20170157103A1, “METHODS OF TREATING DIFFUSE LARGE B-CELL LYMPHOMA USING 3-(4-AMINO-1-OXOISOINDOLIN-2-YL)PIPERIDINE-2,6-DIONE” (Celgene Corporation, priority 2015, published 2017)
